ChEMBL document CHEMBL1201862, “PubChem BioAssay data set” (2004)
Active and inactive are the calls of the source.

Experiments:
[1] = biological target: T1, Heat shock factor protein 1 (Mus musculus, UniProt P38532); experiment: inhibition of MG132-induced HSE-luciferase signal, confirmation, cell-based, NIH3T3, luminescence, dose retest (AID 2382); format: functional;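 note: NIH3T3 fibroblasts with HSF1-driven luciferase reporter stressed by proteasome inhibitor MG132; luminescence from HSF1-driven luciferase expression after 8 hours of MG132 stress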
T1 sequence (P38532 whole entry): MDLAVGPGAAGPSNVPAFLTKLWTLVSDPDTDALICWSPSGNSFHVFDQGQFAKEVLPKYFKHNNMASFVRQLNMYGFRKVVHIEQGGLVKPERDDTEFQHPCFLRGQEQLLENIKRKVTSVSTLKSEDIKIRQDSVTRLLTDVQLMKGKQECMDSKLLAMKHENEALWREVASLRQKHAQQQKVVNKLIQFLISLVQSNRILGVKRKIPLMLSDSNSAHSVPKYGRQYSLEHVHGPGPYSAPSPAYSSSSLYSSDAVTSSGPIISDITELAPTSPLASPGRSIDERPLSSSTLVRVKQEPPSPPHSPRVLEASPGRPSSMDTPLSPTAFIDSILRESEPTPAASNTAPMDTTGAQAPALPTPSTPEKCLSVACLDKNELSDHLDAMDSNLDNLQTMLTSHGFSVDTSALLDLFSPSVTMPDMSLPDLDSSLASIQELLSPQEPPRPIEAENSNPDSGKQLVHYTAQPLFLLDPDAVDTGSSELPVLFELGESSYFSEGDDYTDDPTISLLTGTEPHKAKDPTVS

[2] = biological target: Voltage-dependent T-type calcium channel subunit alpha-1H (Homo sapiens, UniProt O95180); format: functional;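 note: channel activity triggered by adding a high calcium stimulation buffer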
Cytochrome P450 2D6 = Cytochrome P450 2D6 (Homo sapiens, UniProt P10635);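 note: CYP2D6 member of a cytochrome P450 panel assay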
Cytochrome P450 3A4 [3] = biological target: T2, Cytochrome P450 3A4 (Homo sapiens, UniProt P08684);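 note: CYP3A4 tested as one member of a cytochrome P450 panel screen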
[4] = insulin promoter down-regulators in MIN6 cells, imaging, high-content screening, mouse beta cells (AID 1628); format: functional
[5] = cytotoxicity in MIN6 insulinoma cells, dose response, cytotoxicity control, cell-based, mouse insulinoma (AID 2122); format: functional;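 note: confirmatory high-throughput counterscreen run to flag cytotoxic compounds; mouse MIN-6 beta cells carrying an insulin promoter eGFP reporter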
[6] = biological target: Photoreceptor-specific nuclear receptor (Homo sapiens, UniProt Q9Y5X4); format: functional, cell-based;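 note: CHO-S cells with Gal4-NCOR and VP16-NR2E3 two-hybrid luciferase reporter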
Cytochrome P450 2C19 = Cytochrome P450 2C19 (Homo sapiens, UniProt P33261); experiment: Cytochrome panel assay with activity outcomes. Panel member name: p450-cyp2c19 Compounds with AC50 equal or less than 10 uM are considered active; format: functional
Cytochrome P450 3A4 [7] = biological target: T2, Cytochrome P450 3A4; remark: listed apart in the source
Cytochrome P450 2C9 = Cytochrome P450 2C9 (Homo sapiens, UniProt P11712)
INS1 = experiment: beta cell apoptosis inhibitors, cytokine rescue, dose response, luminescence, retest (AID 449756); format: functional, cell-based; conditions: Rattus norvegicus;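 note: cell death triggered by IL-1 beta plus TNF-alpha plus IFN-gamma mixture; protective hits raise ATP signal compared with cytokine alone wells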
[8] = biological target: T3, Lysine-specific demethylase 4A (Homo sapiens, UniProt O75164); experiment: JMJD2A histone demethylase inhibitors, dose response, selectivity assay for GASC-1 inhibitor project, biochemical, DELFIA europium, cherry-picked samples (AID 488840)
T3 sequence (O75164 whole entry): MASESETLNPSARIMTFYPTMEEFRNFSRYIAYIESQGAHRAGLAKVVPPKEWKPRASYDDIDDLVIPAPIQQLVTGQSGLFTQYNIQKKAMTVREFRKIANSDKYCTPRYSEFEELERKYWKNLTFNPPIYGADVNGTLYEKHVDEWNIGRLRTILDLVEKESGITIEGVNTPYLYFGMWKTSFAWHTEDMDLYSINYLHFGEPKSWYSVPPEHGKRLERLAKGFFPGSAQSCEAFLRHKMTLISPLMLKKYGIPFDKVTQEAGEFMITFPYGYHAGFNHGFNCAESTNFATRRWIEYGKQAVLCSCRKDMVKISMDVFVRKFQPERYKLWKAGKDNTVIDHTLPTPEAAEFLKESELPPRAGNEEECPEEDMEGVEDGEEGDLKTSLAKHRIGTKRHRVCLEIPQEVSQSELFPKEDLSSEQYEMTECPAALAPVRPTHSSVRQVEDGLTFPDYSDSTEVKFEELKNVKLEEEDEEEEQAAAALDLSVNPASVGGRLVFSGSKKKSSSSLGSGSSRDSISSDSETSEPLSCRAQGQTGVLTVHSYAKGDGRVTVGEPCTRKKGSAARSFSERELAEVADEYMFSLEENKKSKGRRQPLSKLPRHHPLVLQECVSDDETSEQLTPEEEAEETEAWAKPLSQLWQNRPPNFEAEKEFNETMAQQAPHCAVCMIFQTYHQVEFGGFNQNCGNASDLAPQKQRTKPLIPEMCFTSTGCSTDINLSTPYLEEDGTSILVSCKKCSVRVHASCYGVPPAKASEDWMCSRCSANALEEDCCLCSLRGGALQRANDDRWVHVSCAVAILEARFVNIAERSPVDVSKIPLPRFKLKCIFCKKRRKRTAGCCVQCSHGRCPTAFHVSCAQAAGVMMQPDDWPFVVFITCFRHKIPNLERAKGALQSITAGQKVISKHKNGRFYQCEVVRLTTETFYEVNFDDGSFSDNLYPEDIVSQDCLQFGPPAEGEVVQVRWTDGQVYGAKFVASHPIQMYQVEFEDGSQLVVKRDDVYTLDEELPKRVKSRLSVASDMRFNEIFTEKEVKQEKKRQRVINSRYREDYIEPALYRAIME

[9] = biological target: T4, Tyrosine-protein phosphatase non-receptor type 22 (Homo sapiens, UniProt Q9Y2R2); experiment: SAR LYP1 Fluorescent Assay using pCAP substrate for In Vitro dose response studies - Set 2. [Related pubchem assays (depositor defined):AID1779, AID1784, AID2135, AID449727]; format: functional
T4 sequence (Q9Y2R2 whole entry): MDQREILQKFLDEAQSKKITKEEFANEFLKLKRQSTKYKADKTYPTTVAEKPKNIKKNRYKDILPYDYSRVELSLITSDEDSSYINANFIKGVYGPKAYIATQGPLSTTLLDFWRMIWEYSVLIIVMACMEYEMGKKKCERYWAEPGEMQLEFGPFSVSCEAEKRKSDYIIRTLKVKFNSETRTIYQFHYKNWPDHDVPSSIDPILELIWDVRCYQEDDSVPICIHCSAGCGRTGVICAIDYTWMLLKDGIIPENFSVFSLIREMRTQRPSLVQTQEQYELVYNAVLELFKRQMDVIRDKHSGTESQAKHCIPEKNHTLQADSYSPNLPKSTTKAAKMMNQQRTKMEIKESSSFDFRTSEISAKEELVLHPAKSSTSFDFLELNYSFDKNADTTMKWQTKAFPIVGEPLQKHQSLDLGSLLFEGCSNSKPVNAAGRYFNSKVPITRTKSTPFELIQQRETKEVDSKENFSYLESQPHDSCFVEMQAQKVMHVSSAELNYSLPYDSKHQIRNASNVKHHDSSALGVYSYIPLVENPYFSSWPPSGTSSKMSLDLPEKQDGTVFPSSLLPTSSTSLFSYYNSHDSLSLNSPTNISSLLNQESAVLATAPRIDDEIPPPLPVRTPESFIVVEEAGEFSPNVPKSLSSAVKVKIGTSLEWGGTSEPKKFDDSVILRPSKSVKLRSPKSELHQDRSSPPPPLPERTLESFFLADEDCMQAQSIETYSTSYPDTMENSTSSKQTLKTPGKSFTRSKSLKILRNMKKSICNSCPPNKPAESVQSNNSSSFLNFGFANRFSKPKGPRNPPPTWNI

[10] = biological target: T5, Tyrosine-protein phosphatase non-receptor type 12 (Homo sapiens, UniProt Q05209); experiment: SAR Selectivity Analysis of small molecule inhibitors of PEST using pCAP in a fluorescence assay. [Related pubchem assays (depositor defined):AID1779, AID1784, AID2135]; format: functional
T5 sequence (Q05209 whole entry): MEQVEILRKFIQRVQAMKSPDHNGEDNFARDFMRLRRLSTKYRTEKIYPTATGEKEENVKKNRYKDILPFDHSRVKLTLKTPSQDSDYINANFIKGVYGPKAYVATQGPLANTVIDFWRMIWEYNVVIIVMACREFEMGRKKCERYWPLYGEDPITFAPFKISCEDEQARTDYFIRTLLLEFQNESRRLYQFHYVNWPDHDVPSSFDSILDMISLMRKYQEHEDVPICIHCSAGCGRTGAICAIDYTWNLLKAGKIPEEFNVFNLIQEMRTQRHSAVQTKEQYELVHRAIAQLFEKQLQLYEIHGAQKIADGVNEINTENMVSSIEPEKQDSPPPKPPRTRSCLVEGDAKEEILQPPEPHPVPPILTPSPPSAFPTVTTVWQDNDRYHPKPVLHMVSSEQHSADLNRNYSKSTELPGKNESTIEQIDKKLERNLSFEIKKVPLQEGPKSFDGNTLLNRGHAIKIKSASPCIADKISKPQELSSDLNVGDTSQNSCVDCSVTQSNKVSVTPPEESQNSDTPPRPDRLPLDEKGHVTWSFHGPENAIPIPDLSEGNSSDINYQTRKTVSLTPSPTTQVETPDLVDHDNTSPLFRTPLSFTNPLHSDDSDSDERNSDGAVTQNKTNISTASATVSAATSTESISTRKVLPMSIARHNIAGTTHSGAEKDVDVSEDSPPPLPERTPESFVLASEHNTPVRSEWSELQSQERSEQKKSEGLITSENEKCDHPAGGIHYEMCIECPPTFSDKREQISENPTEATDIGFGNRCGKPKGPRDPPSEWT

[11] = biological target: T4, Tyrosine-protein phosphatase non-receptor type 22; experiment: SAR LYP1 Fluorescent Assay using OMFP substrate for In Vitro dose response studies - Set 3. [Related pubchem assays (depositor defined):AID1779, AID1784, AID2140, AID2686]; format: functional
[12] = biological target: T6, Tyrosine-protein phosphatase non-receptor type 7 (Homo sapiens, UniProt P35236); experiment: HePTP (PTPN7) phosphatase inhibitor potency, SAR follow-up, biochemical, set 2 (AID 449736); format: functional
T6 sequence (P35236 whole entry): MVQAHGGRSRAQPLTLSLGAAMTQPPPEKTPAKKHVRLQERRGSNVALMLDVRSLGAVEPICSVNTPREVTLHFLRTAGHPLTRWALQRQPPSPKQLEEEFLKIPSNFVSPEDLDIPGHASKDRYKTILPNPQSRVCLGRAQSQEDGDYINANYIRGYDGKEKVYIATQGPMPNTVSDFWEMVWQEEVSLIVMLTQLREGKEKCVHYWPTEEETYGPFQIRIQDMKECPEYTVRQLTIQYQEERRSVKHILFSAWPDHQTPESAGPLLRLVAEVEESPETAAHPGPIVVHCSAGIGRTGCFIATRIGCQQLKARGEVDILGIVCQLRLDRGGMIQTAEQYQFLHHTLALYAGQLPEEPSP

[13] = biological target: T4, Tyrosine-protein phosphatase non-receptor type 22; experiment: LYP (PTPN22) phosphatase inhibitor potency, SAR follow-up, biochemical, pCAP fluorogenic substrate, fluorescence, set 3 (AID 449727); format: functional
[14] = biological target: T4, Tyrosine-protein phosphatase non-receptor type 22; experiment: SAR LYP1 Fluorescent Assay using OMFP substrate for In Vitro dose response studies - Set 2. [Related pubchem assays (depositor defined):AID1779, AID1784, AID2140, AID449726, AID488869]; format: functional

Sequence of Cytochrome P450 2D6 (P10635 whole entry): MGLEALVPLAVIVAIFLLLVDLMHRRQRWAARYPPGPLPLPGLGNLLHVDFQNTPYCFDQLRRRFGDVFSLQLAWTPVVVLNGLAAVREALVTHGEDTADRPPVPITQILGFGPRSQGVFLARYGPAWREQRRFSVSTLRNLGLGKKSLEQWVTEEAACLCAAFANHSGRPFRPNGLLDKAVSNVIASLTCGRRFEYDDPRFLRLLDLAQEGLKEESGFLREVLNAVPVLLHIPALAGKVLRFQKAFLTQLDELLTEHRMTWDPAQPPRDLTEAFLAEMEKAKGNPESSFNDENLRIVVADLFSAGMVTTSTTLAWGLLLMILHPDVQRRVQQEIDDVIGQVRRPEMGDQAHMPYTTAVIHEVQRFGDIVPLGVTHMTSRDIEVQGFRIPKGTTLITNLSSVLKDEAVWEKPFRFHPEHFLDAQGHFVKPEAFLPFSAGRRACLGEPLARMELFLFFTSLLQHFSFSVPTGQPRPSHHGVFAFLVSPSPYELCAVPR
T2 sequence (P08684 whole entry): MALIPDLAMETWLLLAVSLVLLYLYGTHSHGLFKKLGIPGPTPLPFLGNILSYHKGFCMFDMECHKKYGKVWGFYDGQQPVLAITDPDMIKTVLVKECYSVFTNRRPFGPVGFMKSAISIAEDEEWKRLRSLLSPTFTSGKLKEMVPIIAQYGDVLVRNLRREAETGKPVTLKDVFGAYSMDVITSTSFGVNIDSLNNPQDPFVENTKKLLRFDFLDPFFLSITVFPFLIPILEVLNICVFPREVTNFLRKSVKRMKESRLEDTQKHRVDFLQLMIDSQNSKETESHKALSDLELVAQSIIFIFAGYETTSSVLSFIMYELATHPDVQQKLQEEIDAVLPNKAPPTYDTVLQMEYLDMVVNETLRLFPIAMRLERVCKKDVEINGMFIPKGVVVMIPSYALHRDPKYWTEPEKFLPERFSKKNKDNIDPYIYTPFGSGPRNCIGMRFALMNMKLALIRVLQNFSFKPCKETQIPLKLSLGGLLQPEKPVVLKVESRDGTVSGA
Sequence of Cytochrome P450 2C9 (P11712 whole entry): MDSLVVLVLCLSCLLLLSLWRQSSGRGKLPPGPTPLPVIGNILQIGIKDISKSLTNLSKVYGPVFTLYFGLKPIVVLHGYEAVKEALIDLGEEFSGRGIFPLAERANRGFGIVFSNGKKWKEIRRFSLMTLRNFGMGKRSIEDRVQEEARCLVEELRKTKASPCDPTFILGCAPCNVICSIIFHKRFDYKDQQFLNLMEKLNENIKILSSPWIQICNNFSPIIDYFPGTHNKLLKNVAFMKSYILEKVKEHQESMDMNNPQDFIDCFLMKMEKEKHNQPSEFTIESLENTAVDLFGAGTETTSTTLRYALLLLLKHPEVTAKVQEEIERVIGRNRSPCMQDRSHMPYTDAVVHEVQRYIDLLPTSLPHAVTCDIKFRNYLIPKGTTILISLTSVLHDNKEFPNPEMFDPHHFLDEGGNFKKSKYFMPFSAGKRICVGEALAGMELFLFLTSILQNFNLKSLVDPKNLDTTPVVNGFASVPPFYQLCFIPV
Sequence of Photoreceptor-specific nuclear receptor (Q9Y5X4 whole entry, the tested form may be a part): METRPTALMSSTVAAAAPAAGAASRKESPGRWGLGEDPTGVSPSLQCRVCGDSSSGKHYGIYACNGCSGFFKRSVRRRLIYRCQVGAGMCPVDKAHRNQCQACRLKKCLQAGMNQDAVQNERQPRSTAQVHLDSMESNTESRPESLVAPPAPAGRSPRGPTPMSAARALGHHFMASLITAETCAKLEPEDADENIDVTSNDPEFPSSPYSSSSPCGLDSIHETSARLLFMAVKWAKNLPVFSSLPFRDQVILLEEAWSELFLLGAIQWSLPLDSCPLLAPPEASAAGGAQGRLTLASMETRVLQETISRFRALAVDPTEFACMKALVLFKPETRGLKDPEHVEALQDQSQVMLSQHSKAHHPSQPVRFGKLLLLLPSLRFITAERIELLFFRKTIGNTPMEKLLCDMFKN
Sequence of Cytochrome P450 2C19 (P33261 whole entry): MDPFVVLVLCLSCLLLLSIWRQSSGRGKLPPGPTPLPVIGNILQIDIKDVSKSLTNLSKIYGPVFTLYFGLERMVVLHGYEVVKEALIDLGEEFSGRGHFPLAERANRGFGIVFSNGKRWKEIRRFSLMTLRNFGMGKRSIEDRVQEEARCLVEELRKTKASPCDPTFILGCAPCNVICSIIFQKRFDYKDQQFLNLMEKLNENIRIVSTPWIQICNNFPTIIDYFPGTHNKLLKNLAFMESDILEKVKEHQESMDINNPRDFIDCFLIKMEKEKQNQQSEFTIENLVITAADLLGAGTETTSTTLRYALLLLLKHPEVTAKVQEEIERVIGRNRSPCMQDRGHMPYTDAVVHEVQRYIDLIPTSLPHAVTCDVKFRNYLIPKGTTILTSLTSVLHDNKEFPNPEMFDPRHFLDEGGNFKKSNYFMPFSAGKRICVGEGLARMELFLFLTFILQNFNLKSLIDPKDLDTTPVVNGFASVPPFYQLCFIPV
Sequence of Voltage-dependent T-type calcium channel subunit alpha-1H (O95180 whole entry): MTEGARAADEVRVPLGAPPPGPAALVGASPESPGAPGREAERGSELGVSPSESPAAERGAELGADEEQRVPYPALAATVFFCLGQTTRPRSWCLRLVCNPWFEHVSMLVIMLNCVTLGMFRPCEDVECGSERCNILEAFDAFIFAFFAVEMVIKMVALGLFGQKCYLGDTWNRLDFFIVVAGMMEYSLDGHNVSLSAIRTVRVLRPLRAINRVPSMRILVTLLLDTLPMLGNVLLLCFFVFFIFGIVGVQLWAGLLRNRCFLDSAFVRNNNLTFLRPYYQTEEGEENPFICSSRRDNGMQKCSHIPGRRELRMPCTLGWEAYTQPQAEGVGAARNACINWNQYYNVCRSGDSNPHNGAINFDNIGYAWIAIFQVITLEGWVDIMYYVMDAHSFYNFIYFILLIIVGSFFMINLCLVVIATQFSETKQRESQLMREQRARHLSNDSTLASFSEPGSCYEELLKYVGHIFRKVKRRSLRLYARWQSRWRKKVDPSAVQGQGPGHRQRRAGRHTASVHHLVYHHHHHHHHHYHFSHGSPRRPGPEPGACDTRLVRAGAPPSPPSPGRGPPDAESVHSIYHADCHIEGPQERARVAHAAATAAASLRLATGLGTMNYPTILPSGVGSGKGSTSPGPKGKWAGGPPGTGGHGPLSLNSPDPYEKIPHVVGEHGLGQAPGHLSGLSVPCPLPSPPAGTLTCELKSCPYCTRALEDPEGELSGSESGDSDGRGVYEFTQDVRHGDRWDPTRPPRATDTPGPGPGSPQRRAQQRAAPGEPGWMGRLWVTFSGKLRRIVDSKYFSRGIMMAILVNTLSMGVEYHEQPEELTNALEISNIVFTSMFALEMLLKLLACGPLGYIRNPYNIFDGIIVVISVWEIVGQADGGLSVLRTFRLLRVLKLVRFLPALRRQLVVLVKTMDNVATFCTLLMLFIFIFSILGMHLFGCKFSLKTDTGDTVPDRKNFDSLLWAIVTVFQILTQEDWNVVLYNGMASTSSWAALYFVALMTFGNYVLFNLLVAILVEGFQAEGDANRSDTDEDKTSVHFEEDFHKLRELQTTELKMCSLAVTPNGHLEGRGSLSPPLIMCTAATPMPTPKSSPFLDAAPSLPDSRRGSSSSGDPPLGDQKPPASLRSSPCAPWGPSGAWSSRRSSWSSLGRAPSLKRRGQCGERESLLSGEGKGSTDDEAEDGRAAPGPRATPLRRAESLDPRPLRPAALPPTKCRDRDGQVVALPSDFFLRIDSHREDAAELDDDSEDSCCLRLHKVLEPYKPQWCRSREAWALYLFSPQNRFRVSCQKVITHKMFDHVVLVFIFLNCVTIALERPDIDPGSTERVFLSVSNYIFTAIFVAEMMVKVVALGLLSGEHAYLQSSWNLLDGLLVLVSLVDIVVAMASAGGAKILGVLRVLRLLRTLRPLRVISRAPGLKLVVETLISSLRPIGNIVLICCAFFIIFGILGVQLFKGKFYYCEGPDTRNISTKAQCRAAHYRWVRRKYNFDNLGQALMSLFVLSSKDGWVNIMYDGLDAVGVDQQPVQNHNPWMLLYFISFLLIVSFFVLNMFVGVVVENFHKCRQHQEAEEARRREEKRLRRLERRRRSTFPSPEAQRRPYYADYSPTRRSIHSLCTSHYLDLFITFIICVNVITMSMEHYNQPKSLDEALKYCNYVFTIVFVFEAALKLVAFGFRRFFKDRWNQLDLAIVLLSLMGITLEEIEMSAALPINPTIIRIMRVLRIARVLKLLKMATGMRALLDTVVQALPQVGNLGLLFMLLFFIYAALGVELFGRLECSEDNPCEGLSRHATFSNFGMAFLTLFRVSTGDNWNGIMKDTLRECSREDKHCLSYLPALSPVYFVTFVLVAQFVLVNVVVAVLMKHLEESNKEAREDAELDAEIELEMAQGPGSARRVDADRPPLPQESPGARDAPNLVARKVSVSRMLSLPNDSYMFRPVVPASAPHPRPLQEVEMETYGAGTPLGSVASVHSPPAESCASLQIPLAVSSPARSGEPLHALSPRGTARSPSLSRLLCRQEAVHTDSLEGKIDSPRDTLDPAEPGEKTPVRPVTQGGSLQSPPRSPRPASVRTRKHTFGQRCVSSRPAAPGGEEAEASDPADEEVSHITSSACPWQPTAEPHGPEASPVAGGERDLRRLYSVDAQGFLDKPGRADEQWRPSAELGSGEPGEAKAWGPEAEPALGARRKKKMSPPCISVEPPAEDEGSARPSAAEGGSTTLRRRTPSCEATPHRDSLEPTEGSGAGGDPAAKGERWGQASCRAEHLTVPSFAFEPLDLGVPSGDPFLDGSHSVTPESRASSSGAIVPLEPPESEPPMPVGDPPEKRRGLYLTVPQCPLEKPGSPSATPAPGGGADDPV

O=S(=O)(Cc1cc(Oc2ccccc2)nc(-c2ccccc2)n1)c1ccccc1
EC50 [1]: > 195 µM (not active) | EC50 [2]: 19.2 µM (active) | AC50 (Cytochrome P450 2D6): inconclusive | AC50 (Cytochrome P450 3A4 [3]): inconclusive

Cc1nc2ncnn2c(N2CCN(c3cccc(C(F)(F)F)c3)CC2)c1C
IC50 [4]: 2.94 µM (active) | IC50 [5]: 3.77 µM (active) | IC50 [6]: 838 nM (active)

CC1(C)[C@@H]2CC[C@@](C)(C2)[C@H]1OC(=O)c1ccccc1C(=O)O
AC50 (Cytochrome P450 2C19): inconclusive | AC50 (Cytochrome P450 3A4 [7]): 3.98 µM (inconclusive) | AC50 (Cytochrome P450 2C9): 3.16 µM (inconclusive) | AC50 (Cytochrome P450 2D6): inconclusive

O=C(COc1ccc2ccccc2c1)N1CCN(Cc2c[nH]c3ccccc23)CC1
IC50 [4]: 4.5 µM (active) | IC50 [5]: 3.26 µM (active) | AC50 (INS1): 2.58 µM (active)

COc1cc2c(cc1OC)C1=C(C#N)COCN1CC2
AC50 [8]: 644 nM (active)

C/C(=N/NC(=O)c1ccccc1)c1ccc(OCC(=O)O)cc1
IC50 [9]: > 100 µM (inactive) | IC50 [10]: > 100 µM (inactive) | IC50 [11]: > 100 µM (inactive) | IC50 [12]: > 100 µM (inactive) | IC50 [13]: > 100 µM (inactive) | IC50 [14]: > 100 µM (inactive)
